Numbers after ± are expanded uncertainties.
Settings: Liquid, Vibrating tube method

CCC(C)O (stereo not drawn) [butan-2-ol]
Settings | mass density [kg/m3]
343.15 K, 47992 kPa | 801 ± 1
343.15 K, 49990 kPa | 802.3 ± 1
343.15 K, 52005 kPa | 803.6 ± 1
343.15 K, 55047 kPa | 805.7 ± 1
343.15 K, 57941 kPa | 807.5 ± 1
343.15 K, 59985 kPa | 808.8 ± 1
343.15 K, 61963 kPa | 810 ± 1
343.15 K, 64974 kPa | 811.9 ± 1
343.16 K, 2963 kPa | 763.4 ± 0.8
343.16 K, 66132 kPa | 812.5 ± 1
348.15 K, 99 kPa | 755 ± 0.8
348.15 K, 293 kPa | 755.2 ± 0.8
348.15 K, 632 kPa | 755.6 ± 0.8
348.15 K, 926 kPa | 756 ± 0.8
348.15 K, 1007 kPa | 756 ± 0.8
348.15 K, 1961 kPa | 757.1 ± 0.8
348.15 K, 2971 kPa | 758.2 ± 0.8
348.15 K, 4887 kPa | 760.3 ± 0.8
348.15 K, 6901 kPa | 762.5 ± 0.8
348.15 K, 8976 kPa | 764.6 ± 0.9
348.15 K, 10049 kPa | 765.7 ± 0.9
348.15 K, 12159 kPa | 767.9 ± 0.9
348.15 K, 15134 kPa | 770.8 ± 0.9
348.15 K, 18029 kPa | 773.4 ± 0.9
348.15 K, 20029 kPa | 775.3 ± 0.9
348.15 K, 22105 kPa | 777.1 ± 0.9
348.15 K, 24943 kPa | 779.5 ± 0.9
348.15 K, 27937 kPa | 782.1 ± 0.9
348.15 K, 29922 kPa | 783.7 ± 0.9
348.15 K, 32051 kPa | 785.4 ± 0.9
348.15 K, 33089 kPa | 786.2 ± 0.9
348.15 K, 33156 kPa | 786.2 ± 0.9
348.15 K, 34089 kPa | 786.8 ± 0.9
348.15 K, 35121 kPa | 787.6 ± 0.9
348.15 K, 37976 kPa | 789.8 ± 0.9
348.15 K, 40028 kPa | 791.3 ± 1
348.15 K, 42107 kPa | 792.9 ± 1
348.15 K, 44933 kPa | 794.9 ± 1
348.15 K, 48043 kPa | 797.1 ± 1
348.15 K, 50077 kPa | 798.4 ± 1
348.15 K, 52078 kPa | 799.8 ± 1
348.15 K, 54947 kPa | 801.7 ± 1
348.15 K, 58004 kPa | 803.6 ± 1
348.15 K, 60105 kPa | 805.1 ± 1
348.15 K, 62134 kPa | 806.4 ± 1
348.15 K, 64952 kPa | 808.1 ± 1
348.15 K, 66089 kPa | 808.8 ± 1
353.15 K, 101 kPa | 749.7 ± 0.8
353.15 K, 309 kPa | 749.9 ± 0.8
353.15 K, 488 kPa | 750.2 ± 0.8
353.15 K, 937 kPa | 750.7 ± 0.8
353.15 K, 997 kPa | 750.8 ± 0.8
353.15 K, 2036 kPa | 752 ± 0.8
353.15 K, 5052 kPa | 755.5 ± 0.8
353.15 K, 7035 kPa | 757.6 ± 0.8
353.15 K, 8919 kPa | 759.7 ± 0.9
353.15 K, 10172 kPa | 761 ± 0.9
353.15 K, 14941 kPa | 765.8 ± 0.9
353.15 K, 20147 kPa | 770.7 ± 0.9
353.15 K, 22188 kPa | 772.6 ± 0.9
353.15 K, 25053 kPa | 775.1 ± 0.9
353.15 K, 28045 kPa | 777.7 ± 0.9
353.15 K, 30122 kPa | 779.4 ± 0.9
353.15 K, 31946 kPa | 780.9 ± 0.9
353.15 K, 32790 kPa | 781.6 ± 0.9
353.15 K, 32795 kPa | 781.5 ± 0.9
353.15 K, 34025 kPa | 782.5 ± 0.9
353.15 K, 35037 kPa | 783.3 ± 0.9
353.15 K, 39961 kPa | 787.1 ± 1
353.15 K, 42055 kPa | 788.7 ± 1
353.15 K, 45025 kPa | 790.9 ± 1
353.15 K, 47906 kPa | 793 ± 1
353.15 K, 51988 kPa | 795.8 ± 1
353.15 K, 58003 kPa | 799.9 ± 1
353.15 K, 62118 kPa | 802.6 ± 1
353.15 K, 65015 kPa | 804.4 ± 1
353.15 K, 66227 kPa | 805.2 ± 1
353.16 K, 2973 kPa | 753.1 ± 0.8
353.16 K, 12072 kPa | 762.9 ± 0.9
353.16 K, 18090 kPa | 768.8 ± 0.9
353.16 K, 38061 kPa | 785.7 ± 0.9
353.16 K, 49998 kPa | 794.4 ± 1
353.16 K, 54972 kPa | 797.7 ± 1
353.16 K, 60035 kPa | 801.2 ± 1
358.15 K, 94 kPa | 744.2 ± 0.8
358.15 K, 317 kPa | 744.5 ± 0.8
358.15 K, 531 kPa | 744.8 ± 0.8
358.15 K, 912 kPa | 745.3 ± 0.8
358.15 K, 2002 kPa | 746.6 ± 0.8
358.15 K, 6978 kPa | 752.5 ± 0.8
358.15 K, 8996 kPa | 754.7 ± 0.9
358.15 K, 14843 kPa | 760.9 ± 0.9
358.15 K, 20099 kPa | 766.2 ± 0.9
358.15 K, 22025 kPa | 767.9 ± 0.9
358.15 K, 25009 kPa | 770.7 ± 0.9
358.15 K, 33055 kPa | 777.5 ± 0.9
358.15 K, 33103 kPa | 777.7 ± 0.9
358.15 K, 34173 kPa | 778.4 ± 0.9
358.15 K, 35154 kPa | 779.2 ± 0.9
358.15 K, 38016 kPa | 781.5 ± 1
358.15 K, 40036 kPa | 783.1 ± 1
358.15 K, 42070 kPa | 784.7 ± 1
358.15 K, 44944 kPa | 786.8 ± 1
358.15 K, 47921 kPa | 789 ± 1
358.15 K, 50038 kPa | 790.5 ± 1
358.15 K, 52069 kPa | 792 ± 1
358.15 K, 55065 kPa | 794.1 ± 1
358.15 K, 58024 kPa | 796.1 ± 1
358.15 K, 60060 kPa | 797.4 ± 1
358.15 K, 62217 kPa | 798.9 ± 1
358.15 K, 65051 kPa | 800.7 ± 1
358.15 K, 66079 kPa | 801.3 ± 1.1
358.16 K, 997 kPa | 745.3 ± 0.8
358.16 K, 2956 kPa | 747.8 ± 0.8
358.16 K, 4886 kPa | 750.1 ± 0.8
358.16 K, 10124 kPa | 755.9 ± 0.9
358.16 K, 11961 kPa | 757.9 ± 0.9
358.16 K, 17993 kPa | 764.1 ± 0.9
358.16 K, 27942 kPa | 773.3 ± 0.9
358.16 K, 30089 kPa | 775.1 ± 0.9
358.16 K, 32063 kPa | 776.8 ± 0.9
363.15 K, 99 kPa | 738.7 ± 0.8
363.15 K, 349 kPa | 739 ± 0.8
363.15 K, 512 kPa | 739.3 ± 0.8
363.15 K, 910 kPa | 739.8 ± 0.8
363.15 K, 3038 kPa | 742.5 ± 0.8
363.15 K, 12190 kPa | 753.3 ± 0.9
363.15 K, 25101 kPa | 766.2 ± 0.9
363.15 K, 30034 kPa | 770.6 ± 0.9
363.15 K, 33002 kPa | 773.1 ± 0.9
363.15 K, 33042 kPa | 773.2 ± 0.9
363.15 K, 34072 kPa | 774 ± 0.9
363.15 K, 40041 kPa | 779 ± 1
363.15 K, 42237 kPa | 780.7 ± 1
363.15 K, 44948 kPa | 782.8 ± 1
363.15 K, 48033 kPa | 785.1 ± 1
363.15 K, 50015 kPa | 786.6 ± 1
363.15 K, 52088 kPa | 788.1 ± 1
363.15 K, 55038 kPa | 790.2 ± 1
363.15 K, 57996 kPa | 792.2 ± 1
363.15 K, 60085 kPa | 793.7 ± 1
363.15 K, 62081 kPa | 795 ± 1
363.15 K, 65016 kPa | 796.9 ± 1.1
363.15 K, 66010 kPa | 797.6 ± 1.1
363.16 K, 1038 kPa | 739.9 ± 0.8
363.16 K, 2013 kPa | 741.2 ± 0.8
363.16 K, 5065 kPa | 745 ± 0.8
363.16 K, 7039 kPa | 747.4 ± 0.9
363.16 K, 8975 kPa | 749.7 ± 0.9
363.16 K, 10001 kPa | 750.8 ± 0.9
363.16 K, 14664 kPa | 755.9 ± 0.9
363.16 K, 17691 kPa | 759 ± 0.9
363.16 K, 20116 kPa | 761.4 ± 0.9
363.16 K, 22089 kPa | 763.4 ± 0.9
363.16 K, 28014 kPa | 768.8 ± 0.9
363.16 K, 32089 kPa | 772.4 ± 0.9
363.16 K, 35096 kPa | 775 ± 0.9
363.16 K, 37960 kPa | 777.4 ± 1

— the NIST ThermoML archive (doi:10.1021/acs.jced.5b00934)
